Source: patent publication US20120252721A1 (priority 2011, published 2012)

What was measured:
[1] = in vitro; assay type: cell-based; conditions: human; GS4.1 cells, cellular viability
Method: For cytotoxicity evaluation, GS4.1 cells were treated with compounds as described above and cellular viability was monitored using the Cell Titer 96 AQeous One Solution Cell Proliferation Assay (Promega). CC50 values were determined from the % cytotoxicity versus concentration data with Tecan Magellan software as described above.

[2] = test system: HCV Con1 subgenomic replicon (GS4.1 cells); assay: HCV replicon assay (NS5A ELISA, 72 hrs); assay type: cell-based; conditions: Hepatitis C virus
Method: Huh-7 cells containing HCV Con1 subgenomic replicon (GS4.1 cells) were grown in Dulbecco's Modified Eagle Medium (DMEM) supplemented with 10% fetal bovine serum (FBS), 2 mM L-glutamine, 110 mg/L sodium pyruvate, 1× non-essential amino acids, 100 U/mL penicillin-streptomycin, and 0.5 mg/mL G418 (Invitrogen). For dose-response testing, the cells were seeded in 96-well plates at 7.5×10^3 cells/well in a volume of 50 μL, and incubated at 37° C./5% CO2. Three hours after plating, 50 μL often 2-fold serial dilutions of compounds (highest concentration, 75 μM) were added, and cell cultures were incubated at 37° C./5% CO2 in the presence of 0.5% DMSO. Alternatively, compounds were tested at a single concentration of 15 μM. In all cases, Huh-7 cells lacking the HCV replicon served as negative control. The cells were incubated in the presence of compounds for 72 hrs after which they were monitored for expression of the NS5A protein by enzyme-linked immunosorbent assay (ELISA). For this, the plates were then fixed for 1 min with acetone/methanol (1:1, v/v), washed twice with phosphate-buffered saline (PBS), 0.1% Tween 20, blocked for 1 hr at room temperature with TNE buffer containing 10% FBS and then incubated for 2 hr at 37° C. with the anti-NS5A mouse monoclonal antibody A-236 (ViroGen) diluted in the same buffer. After washing three times with PBS, 0.1% Tween 20, the cells were incubated 1 hr at 37° C. with anti-mouse immunoglobulin G-peroxidase conjugate in TNE, 10% FBS. After washing as described above, the reaction was developed with O-phenylenediamine (Zymed). The reaction was stopped after 30 min with 2 NH2SO4, and absorbance was read at 492 nm using Sunrise Tecan spectrophotometer. EC50 values were determined from the % inhibition versus concentration data using a sigmoidal non-linear regression analysis based on four parameters with Tecan Magellan software.

[3] = test system: H1a-luc or Zluc cells; assay: in vitro; assay type: cell-based, human; conditions: Table 1B, cellular viability
Method: (§1) For cytotoxicity evaluation, HPC cells were treated with compounds as described above in the absence of the genotype 2a virus and cellular viability was monitored using the Cell Titer 96 AQueous One Solution Cell Proliferation Assay (Promega). Plates were then read at 490 nm in a Victor^3V 1420 multilabel counter (Perkin Elmer) and CC50 concentrations were determined using Microsoft Excel and XLfit 4.1 software.
as §1, with “H1a-luc or Zluc” for “HPC”, “above” for “above in the absence of the genotype 2a virus”

[4] = test system: HCV genotype 1a H77 strain subgenomic luciferase replicon (H1a-luc); assay: Luciferase replicon assay, genotype 1a; assay type: cell-based; conditions: Hepatitis C virus, read-out: EC50 1a
Method: Drug titration analysis was performed using the luciferase replicon assay described herein.
(§2) The HCV luciferase replicon assay measures the ability of a test compound to inhibit HCV replication in cell culture after 3 days of treatment in a human hepatoma cell line (Huh-7) bearing an HCV replicon containing a luciferase-neomycin phosphotransferase fusion gene. The inhibition of HCV replication was measured by quantification of luciferase protein expression. Briefly, Huh-7 cells containing either the HCV genotype 1a H77 strain or genotype 1b Con1 strain subgenomic luciferase replicon (H1a-luc or Zluc, respectively) were grown in DMEM containing glucose, L-glutamine and sodium pyruvate, 10% fetal bovine serum (FBS), 100 IU/mL penicillin, 100 μg/mL streptomycin, 2 mM GlutaMAX, non-essential amino acids and 0.25 (H1a-luc) or 0.5 (Zluc) mg/mL G418. GlutaMAX was obtained from Invitrogen, Corp.; all other media reagents were obtained from Mediatech, Inc. For dose-response testing, the cells were seeded in 96-well plates at 1×10^4 (H1a-luc) or 7.5×10^3 (Zluc) cells/well in a volume of 50 μL, and incubated at 37° C./5% CO2. Three hours after plating, 50 μL of ten 5-fold serial dilutions of compound were added, and cell cultures were incubated at 37° C./5% CO2 for 72 hours. In all cases, Huh-7 cells lacking the HCV replicon served as negative control. To assess luciferase expression, the media/compound was removed from the plates and ONE-glo Luciferase assay reagent (Promega) was added to each well. The assay plates were shaken for 3 minutes at room temperature and luciferase activity for each well was measured with a 1 sec read time on the Victor^3V multilabel counter using a 700 nm cut-off filter (Perkin Elmer). EC50 values were calculated from dose response curves from the resulting best-fit equations determined by Microsoft Excel and XLfit 4.1 software.

[5] = test system: HCV genotype 1b Con1 strain subgenomic luciferase replicon (Zluc); assay: Luciferase replicon assay, genotype 1b; assay type: cell-based; conditions: Hepatitis C virus
Method: as §2

| SMILES | CC50 [1] | EC50 [2] | CC50 [3] | EC50 [4] | EC50 [5] |
| --- | --- | --- | --- | --- | --- |
| COC(=O)N[C@H](C(=O)N1CCCC1c1ncc(-c2cc3sc(-c4ncc(-c5c[nH]c([C@@H]6CCCN6C(=O)[C@@H](NC(=O)OC)C(C)C)n5)s4)cc3s2)[nH]1)C(C)C (stereo partly drawn) [Compound A130] | > 75 µM | < 0.001 µM |  |  |  |
| COC(=O)N[C@H](C(=O)N1CCC[C@H]1C(=O)Nc1cn2cc(-c3ccc(NC(=O)CNC(=O)[C@H](NC(=O)OC(C)(C)C)c4ccccc4)cc3)sc2n1)C(C)C [Compound A147] | > 75 µM | 0.01 to 0.1 µM |  |  |  |
| COC(=O)N[C@H](C(=O)N1CCC[C@H]1c1ncc(-c2ccc(-c3cn4cc(NC(=O)CNC(=O)[C@H](NC(=O)OC(C)(C)C)c5ccccc5)nc4s3)cc2)[nH]1)C(C)C [Compound A148] | > 75 µM | 0.001 to 0.01 µM |  |  |  |
| COC(=O)N[C@H](C(=O)N1CCC[C@H]1C(=O)Nc1cn2cc(-c3cccc(NC(=O)[C@@H]4CCCN4C(=O)[C@H](NC(=O)OC)c4ccccc4)c3)sc2n1)C(C)C [Compound A149] | 10 to 75 µM | 0.01 to 0.1 µM |  |  |  |
| COC(=O)N[C@H](C(=O)N1CCC[C@H]1c1ncc(-c2ccc(-c3cn4cc(NC(=O)[C@@H]5CCCN5)nc4s3)cc2)[nH]1)C(C)C [Compound A150] | 10 to 75 µM | 0.01 to 0.1 µM |  |  |  |
| COC(=O)N[C@H](C(=O)N1CCCC1c1ncc(-c2ccc(-c3csc4c(-c5cnc(C6CCCN6C(=O)OC(C)(C)C)[nH]5)csc34)cc2)[nH]1)C(C)C (stereo partly drawn) [Compound A151] | 10 to 75 µM | < 0.001 µM |  |  |  |
| CC(C)(C)OC(=O)N1CCCC1c1ncc(-c2cn3cc(-c4ccc(Cl)cc4)sc3n2)[nH]1 (stereo not drawn) [Compound A152] | 10 to 75 µM | > 0.1 µM |  |  |  |
| COC(=O)N[C@H](C(=O)N1CCCC1c1ncc(-c2cn3cc(-c4ccc(Cl)cc4)sc3n2)[nH]1)C(C)C (stereo partly drawn) [Compound A153] | 10 to 75 µM | 0.01 to 0.1 µM |  |  |  |
| COC(=O)N[C@H](C(=O)N1CCCC1c1ncc(-c2ccc(-c3ccc(-c4nc5sccn5c4Cl)cc3)cc2)[nH]1)C(C)C (stereo partly drawn) [Compound A154] | 10 to 75 µM | 0.01 to 0.1 µM |  |  |  |
| COC(=O)N[C@H](C(=O)N1CCC[C@H]1c1ncc(-c2ccc(-c3csc4c(Br)csc34)cc2)[nH]1)C(C)C [Compound A155, [(S)-1-((S)-2-{4-[4-(6-bromo-thieno[3,2-b]thiophen-3-yl)-phenyl]-1H-imidazol-2-yl}-pyrrolidine-1-carbonyl)-2-methyl-propyl]-carbamic acid methyl ester] | 10 to 75 µM | 0.01 to 0.1 µM |  |  |  |
| COC(=O)N[C@H](C(=O)N1CCC[C@H]1c1cc(-c2ccc(-c3cn4cc(NC(=O)[C@@H]5CCCN5C(=O)[C@H](NC(=O)OC(C)C)c5ccccc5)nc4s3)cc2)[nH]n1)C(C)C [Compound A156] | > 75 µM | < 0.001 µM |  |  |  |
| CC(C)(C)OC(=O)N1CCCC1c1nc(-c2ccc(-c3cn4cc(-c5ccc(-c6cnc([C@@H]7CCCN7C(=O)OC(C)(C)C)[nH]6)cc5)sc4n3)cc2)c[nH]1 (stereo partly drawn) [Compound A157] | > 75 µM | 0.01 to 0.1 µM |  |  |  |
| CC(C)(C)OC(=O)N1CCC[C@H]1c1ncc(-c2ccc(-c3cn4c(-c5ccccc5)csc4n3)cc2)[nH]1 [Compound A158] | 10 to 75 µM | > 0.1 µM |  |  |  |
| COC(=O)N[C@H](C(=O)N1CCCC1c1nc(-c2ccc(-c3cc4sc(-c5ccc(-c6cnc([C@@H]7CCCN7C(=O)[C@@H](NC(=O)OC)C(C)C)[nH]6)cc5)cc4s3)cc2)c[nH]1)C(C)C (stereo partly drawn) [Compound A159] | > 75 µM | < 0.001 µM |  |  |  |
| COC(=O)N[C@H](C(=O)N1CCCC1c1ncc(-c2ccc(-c3cn4ccsc4n3)cc2)[nH]1)C(C)C (stereo partly drawn) [Compound A160] | > 75 µM | 0.01 to 0.1 µM |  |  |  |
| CC(C)(C)OC(=O)N1CCCC1c1ncc(-c2ccc(-c3nc4sccn4c3Cl)cc2)[nH]1 (stereo not drawn) [Compound A161] | > 75 µM | > 0.1 µM |  |  |  |
| COC(=O)N[C@H](C(=O)N1CCCC1c1ncc(-c2ccc(-c3cn4c(-c5ccccc5)csc4n3)cc2)[nH]1)C(C)C (stereo partly drawn) [Compound A162] | 10 to 75 µM | 0.001 to 0.01 µM |  |  |  |
| COC(=O)N[C@H](C(=O)N1CCCC1c1nc(-c2ccc(-c3c(C(=O)OC)[nH]c4c(-c5ccc(-c6cnc(C7CCCN7C(=O)[C@@H](NC(=O)OC)C(C)C)[nH]6)cc5)csc34)cc2)c[nH]1)C(C)C (stereo partly drawn) [Compound A163] | > 75 µM | < 0.001 µM |  |  |  |
| COC(=O)N[C@H](C(=O)N1CCCC1c1ncc(-c2ccc(-c3csc4cc(C(=O)OC)[nH]c34)cc2)[nH]1)C(C)C (stereo partly drawn) [Compound A164] | 10 to 75 µM | 0.01 to 0.1 µM |  |  |  |
| COC(=O)N[C@H](C(=O)N1CCCC1c1ncc(-c2ccc(-c3cc4sc(Br)cc4s3)cc2)[nH]1)C(C)C (stereo partly drawn) [Compound A168] | 10 to 75 µM | 0.01 to 0.1 µM |  |  |  |
| COC(=O)N[C@H](C(=O)N1CCC[C@H]1c1ncc(-c2ccc(-c3csc4c(-c5cnc([C@@H]6CCCN6C(=O)[C@H](NC(=O)OC)c6ccccc6)[nH]5)csc34)cc2)[nH]1)C(C)C [Compound A200, [(S)-1-((S)-2-{4-[4-(6-{2-[(S)-1-((R)-2-methoxycarbonylamino-2-phenyl-acetyl)-pyrrolidin-2-yl]-3H-imidazol-4-yl}-thieno[3,2-b]thiophen-3-yl)-phenyl]-1H-imidazol-2-yl}-pyrrolidine-1-carbonyl)-2-methyl-propyl]-carbamic acid methyl ester] |  |  | > 75 µM | 0.0001 to 0.001 µM | < 0.0001 µM |
| COC(=O)N[C@H](C(=O)N1CCCC1c1nc(-c2cc3sc(-c4ccc(-c5cnc([C@@H]6CCCN6C(=O)[C@@H](c6ccccc6)N6CCCCC6)[nH]5)cc4)cc3o2)c[nH]1)C(C)C (stereo partly drawn) [Compound A212] |  |  | 10 to 75 µM | < 0.0001 µM | < 0.0001 µM |
| COC(=O)N[C@H](C(=O)N1CCCC1c1ncc(-c2ccc(-n3ccc4c(-c5cnc(C6CCCN6C(=O)[C@@H](NC(=O)OC)C(C)C)[nH]5)csc43)c(Cl)c2)[nH]1)C(C)C (stereo partly drawn) [Compound A213] |  |  |  | 0.0001 to 0.001 µM | < 0.0001 µM |
| COC(=O)N[C@H](C(=O)N1CCC[C@H]1c1nc2ccc(-c3cc4sc(-c5ccc(-c6c[nH]c([C@@H]7CCCN7C(=O)[C@H](NC(=O)OC)c7ccccc7)n6)cc5)cc4s3)cc2[nH]1)C(C)C [Compound A215, [(S)-1-((S)-2-{6-[5-(4-{(S)-2-[1-((R)-2-methoxycarbonylamino-2-phenyl-acetyl)-pyrrolidin-2-yl]-1H-imidazol-4-yl}-phenyl)-thieno[3,2-b]thiophen-2-yl)-1H-benzoimidazol-2-yl}-pyrrolidine-1-carbonyl)-2-methyl-propyl]-carbamic acid methyl ester] |  |  | > 75 µM | < 0.0001 µM | < 0.0001 µM |
| COC(=O)N[C@H](C(=O)N1CCCC1c1ncc(-c2cc3sc(-c4ccc(-c5cnc([C@@H]6CCCN6C(=O)[C@H](NC(=O)OC)c6ccccc6)[nH]5)cc4)cc3s2)[nH]1)C(C)C (stereo partly drawn) [Compound A217] |  |  | > 75 µM | < 0.0001 µM | < 0.0001 µM |
